Legend:
Type in all cases: cell-based
[1] = test system: splenocytes of HLA-A24 (A*2402) transgenic mice; set-up: key to A24: average IFN-γ spots forming cells per million splenocytes: — represents no positive ELISpot response
[2] = test system: splenocytes of HLA-DR3 (DRB1*0301) transgenic mice; set-up: key to DR3: average IFN-γ spots forming cells per million splenocytes: — represents no positive ELISpot response
[3] = test system: splenocytes of HLA-B7 (B*0702) transgenic mice; set-up: key to B7: average IFN-γ spots forming cells per million splenocytes: — represents no positive ELISpot response
[4] = test system: splenocytes of HLA-DR2 (DRB1*1501) transgenic mice; set-up: key to DR2: average IFN-γ spots forming cells per million splenocytes: — represents no positive ELISpot response
[5] = test system: splenocytes of HLA-DR4 (DRB1*0401) transgenic mice; set-up: key: — represents no positive ELISpot response

| Sequence | A24: average IFN-γ spots forming cells per million splenocytes [1] | DR3: average IFN-γ spots forming cells per million splenocytes [2] | DR3: lowest concentration of peptide giving positive ELISpot response in peptide titration [2] | B7: average IFN-γ spots forming cells per million splenocytes [3] | DR2: average IFN-γ spots forming cells per million splenocytes [4] | DR4: average IFN-γ spots forming cells per million splenocytes [5] | DR2: lowest concentration of peptide giving positive ELISpot response in peptide titration [4] | A24: lowest concentration of peptide giving positive ELISpot response in peptide titration [1] | B7: lowest concentration of peptide giving positive ELISpot response in peptide titration [3] |
| --- | --- | --- | --- | --- | --- | --- | --- | --- | --- |
| GRFYIQMCTELKLNDYE | — | 66 ± 7(1) IFN-γ spots forming cells per million splenocytes | 66 ± 7(1) μg/ml | — | — | — |  |  |  |
| IGVTVIKNNMINNDLGP | — | — |  | — | 159 ± 53(0.1) IFN-γ spots forming cells per million splenocytes | — | 159 ± 53(0.1) μg/ml |  |  |
| KHGTFGPVHFRNQVKIR | — | — |  | — | — | 316 ± 20(0.1) IFN-γ spots forming cells per million splenocytes |  |  |  |
| KLLGINMSKKKSYINRT | — | 116 ± 10(0.1) IFN-γ spots forming cells per million splenocytes | 116 ± 10(0.1) μg/ml | — | — | — |  |  |  |
| KRSYEQMETDGERQNAT | — | — |  | — | — | 52 ± 29(0.1) IFN-γ spots forming cells per million splenocytes |  |  |  |
| KWVRELVLYDKEEIRRI | — | 614 ± 21(0.1) IFN-γ spots forming cells per million splenocytes | 614 ± 21(0.1) μg/ml | — | — | — |  |  |  |
| KYPITADKRITEMIPER | — | 499 ± 4(0.1) IFN-γ spots forming cells per million splenocytes | 499 ± 4(0.1) μg/ml | — | — | — |  |  |  |
| LASTTAKAMEQMAGSSE | — | — |  | — | — | 115 ± 21(1) IFN-γ spots forming cells per million splenocytes |  |  |  |
| LEKANKIKSEKTHIHIF | — | — |  | — | — | 41 ± 10(0.1) IFN-γ spots forming cells per million splenocytes |  |  |  |
| LLRHFQKDAKVLFLNWG | — | 444 ± 14(0.1) IFN-γ spots forming cells per million splenocytes | 444 ± 14(0.1) μg/ml | — | — | — |  |  |  |
| LPDMTPSTEMSMRGVRV | — | 324 ± 28(0.1) IFN-γ spots forming cells per million splenocytes | 324 ± 28(0.1) μg/ml | — | — | — |  |  |  |
| LQLFIKDYRYTYRCHRG | — | 230 ± 23(0.1) IFN-γ spots forming cells per million splenocytes | 230 ± 23(0.1) μg/ml | — | 61 ± 2(1) IFN-γ spots forming cells per million splenocytes | 97 ± 30(0.1) IFN-γ spots forming cells per million splenocytes | 61 ± 2(1) μg/ml |  |  |
| LTHIMIWHSNLNDTTYQ | — | — |  | — | 238 ± 59(0.1) IFN-γ spots forming cells per million splenocytes | — | 238 ± 59(0.1) μg/ml |  |  |
| MELPSFGVSGVNESADM | — | — |  | — | — | 274 ± 15(0.1) IFN-γ spots forming cells per million splenocytes |  |  |  |
| MGMIGILPDMTPSTEMS | — | — |  | — | — | 238 ± 5(0.1) IFN-γ spots forming cells per million splenocytes |  |  |  |
| MWEINGPESVLINTYQW | 289 ± 16 IFN-γ spots forming cells per million splenocytes | — |  | — | — | — |  | (0.1) μg/ml |  |
| NDLGPATAQMALQLFIK | 92 ± 2(1) IFN-γ spots forming cells per million splenocytes | — |  | — | — | — |  | 92 ± 2(1) μg/ml |  |
| NPSLRMKWMMAMKYPIT | — | — |  | — | — | 166 ± 3(0.1) IFN-γ spots forming cells per million splenocytes |  |  |  |
| PESVLINTYQWIIRNWE | 226 ± 5 IFN-γ spots forming cells per million splenocytes | — |  | — | — | — |  | (0.1) μg/ml |  |
| PVHFRNQVKIRRRVDIN | — | — |  | — | — | 311 ± 37(0.1) IFN-γ spots forming cells per million splenocytes |  |  |  |
| RATAILRKATRRLIQLI | — | — |  | — | — | 54 ± 2(0.1) IFN-γ spots forming cells per million splenocytes |  |  |  |
| RFLRVRDQRGNVLLSPE | — | — |  | 184 ± 3 IFN-γ spots forming cells per million splenocytes | — | — |  |  | (0.1) μg/ml |
| RFYRTCKLLGINMSKKK | — | — |  | — | 231 ± 73(1) IFN-γ spots forming cells per million splenocytes | — | 231 ± 73(1) μg/ml |  |  |
| RMIGGIGRFYIQMCTEL | 45 ± 5 IFN-γ spots forming cells per million splenocytes | — |  | — | — | — |  | (0.1) μg/ml |  |
| RMQFSSLTVNVRGSGMR | — | — |  | — | 104 ± 16(0.1) IFN-γ spots forming cells per million splenocytes | — | 104 ± 16(0.1) μg/ml |  |  |
